Data set [1] deals with T1, Adenosine receptor A3 (Homo sapiens) (UniProt P0DMS8).
T1 sequence (whole entry): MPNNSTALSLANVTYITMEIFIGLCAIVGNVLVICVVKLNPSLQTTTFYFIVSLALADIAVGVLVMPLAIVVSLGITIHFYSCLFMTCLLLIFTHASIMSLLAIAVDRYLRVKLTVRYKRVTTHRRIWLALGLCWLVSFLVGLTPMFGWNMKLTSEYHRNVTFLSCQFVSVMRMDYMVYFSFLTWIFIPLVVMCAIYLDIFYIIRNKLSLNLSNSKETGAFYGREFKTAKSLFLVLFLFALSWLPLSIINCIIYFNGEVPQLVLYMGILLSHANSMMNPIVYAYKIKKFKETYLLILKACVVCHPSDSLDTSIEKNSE
Nature of the data set: Displacement of [125I]AB-MECA from recombinant human A3 receptor at 10 uM after 120 mins by scintillation counting method relative to control.

The nature of data set [2]: Cmax in rat at 15 mg/kg, po qd for 4 days measured on day 1 post dose. Conditions: in vivo.

The values below come from ChEMBL document CHEMBL4308847, “Discovery, Structure-Activity Relationship, and Biological Characterization of a Novel Series of 6-((1 H-Pyrazolo[4,3- b]pyridin-3-yl)amino)-benzo[ d]isothiazole-3-carboxamides as Positive Allosteric Modulators of the Metabotropic Glutamate Receptor 4 (mGlu4)” (J Med Chem, 2018).

For the compound `O=C(NC1CC(F)(F)C1)c1nsc2cc(Nc3n[nH]c4cccnc34)ccc12`, in data set [1], the inhibition was found to be 76%. With `CC(C)(C)Cc1noc2cc(Nc3n[nH]c4nccnc34)ccc12`, the maximum concentration (Cmax) in data set [2] came out at 86.3 ng/mL.
